As a reminder, the CC50 is the concentration at which the toxic effect on the cells reaches its halfway point. A high value points to lower toxicity to the cells. As a reminder, the EC50 is the midpoint of the concentration-response curve.

This note sets out measurements from US20240279227A1, “FUSED HETEROCYCLIC DERIVATIVES” (Janssen Sciences Ireland Unlimited Company, priority 2021, published 2024).

Some results are limits rather than exact numbers.

The nature of series [1]: Human liver microsome stability. The format is in vitro ADME. Conditions: 1 μM compound, NADPH 1 mM, pH 7.4, 37° C., 0-60 min; for HLM Metabolism t1/2: pooled human liver microsomes 0.5 mg/mL; for half-life at 1 μM: human, pooled human liver microsomes, pH 7.4, pooled human liver microsomes 0.5 mg/mL, read-out: HLM Metabolism t1/2. A digest of the protocol:
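Pooled human liver microsomes (0.5 mg/mL) incubated at 37 °C with 1 μM compound in 0.1 M phosphate pH 7.4, 1 mM MgCl2; 1 mM NADPH starts reaction. Samples quenched in acetonitrile at 0–60 min, analysed by LC-MS against internal standard; half-life from slope of ln peak-area ratio versus time.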
(In general: Liver microsomes are vesicles of endoplasmic reticulum, rich in cytochrome P450 enzymes.)

In the next series the test system is HepG2 or HepG2.117 cells. Put plainly: Cytotoxicity, ATPlite Luminescence Assay. Format: cell-based, human. Conditions: 3-days incubation unless marked with *, ATPlite viability. In short, it runs like this:
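Viability after compound treatment is read as ATP luminescence. Exposure lasts 3 or 4 days.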

The subject of the next series is HBV. Put plainly: Anti-HBV activity in HepG2.117 cell line (intracellular HBV DNA, real-time PCR). The format is cell-based, hepatitis B virus. Particulars: HepG2.117 cells, HBV replication induced, 3 days of treatment, intracellular HBV DNA by real-time PCR. A digest of the protocol:
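HepG2.117 cells (Tet-off, doxycycline-free HBV replication) induced for HBV replication, then exposed to serially diluted compound for 3 days. Intracellular HBV DNA quantified by real-time PCR with HBV-specific primers and probe.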
On the technique in general: Quantitative PCR measures a nucleic acid by following its amplification.

In the case of `CNC(=O)[C@@H]1CN(C(C)c2ccc(-c3c(C)noc3C)nc2)C(=O)c2c3c(nn21)C[C@@H](C)N(C(=O)c1ccc(Cl)c(Cl)c1)C3` (single isomer, unassigned) [Compound 35B, (3R,7S)-2-(3,4-dichlorobenzoyl)-9-((S*)-1-(6-(3,5-dimethylisoxazol-4-yl)pyridin-3-yl)ethyl)-N,3-dimethyl-10-oxo-1,2,3,4,7,8,9,10-octahydropyrido[4′,3′:3,4]pyrazolo[1,5-a]pyrazine-7-carboxamide], the “HLM Metabolism t1/2” value in series [1] came out at 2.17 h. In the series on HepG2 or HepG2.117 cells, the 50% cytotoxic concentration (CC50) was over 50 µM. Further, the EC50 in the series on HBV turned out to be 0.082 µM.
On the same counts, the results for `CNC(=O)[C@@H]1CN(C(C)c2ccc(-n3cncn3)cn2)C(=O)c2c3c(nn21)C[C@@H](C)N(C(=O)c1ccc(Cl)c(Cl)c1)C3` (single isomer, unassigned) [Compound 40B, (3R,7S)-9-((S*)-1-(5-(1H-1,2,4-triazol-1-yl)pyridin-2-yl)ethyl)-2-(3,4-dichlorobenzoyl)-N,3-dimethyl-10-oxo-1,2,3,4,7,8,9,10-octahydropyrido[4′,3′:3,4]pyrazolo[1,5-a]pyrazine-7-carboxamide] are over 3 h, over 50 µM and 0.097 µM.
Taken in the same sequence, the figures for `CNC(=O)[C@@H]1CN(C(C)c2ccc(C#N)cc2)C(=O)c2c3c(nn21)C[C@@H](C)N(C(=O)c1ccc(Cl)c(Cl)c1)C3` (single isomer, unassigned) [Compound 23B, (3R,7S)-9-((S*)-1-(4-cyanophenyl)ethyl)-2-(3,4-dichlorobenzoyl)-N,3-dimethyl-10-oxo-1,2,3,4,7,8,9,10-octahydropyrido[4′,3′:3,4]pyrazolo[1,5-a]pyrazine-7-carboxamide] were over 3 h, over 50 µM and 0.023 µM.
For the compound `CNC(=O)[C@@H]1CN(C(C)c2ccc(-n3nnc(C)n3)cc2)C(=O)c2c3c(nn21)C[C@@H](C)N(C(=O)c1ccc(Cl)c(Cl)c1)C3` (single isomer, unassigned) [Compound 30A, (3R,7S)-2-(3,4-Dichlorobenzoyl)-N,3-dimethyl-9-((R*)-1-(4-(5-methyl-2H-tetrazol-2-yl)phenyl)ethyl)-10-oxo-1,2,3,4,7,8,9,10-octahydropyrido[4′,3′:3,4]pyrazolo[1,5-a]pyrazine-7-carboxamide], the half-life at 1 μM in series [1] is over 3 h. This compound returned a CC50 in the series with HepG2 or HepG2.117 cells of over 50 µM. For the same compound, the midpoint of the response with HBV (Hepatitis B virus, HepG2.117, 72 h), the EC50, lay at 0.016 µM.
Turning to `CNC(=O)[C@@H]1CN(C(C)c2ccc(-n3cncn3)cc2)C(=O)c2c3c(nn21)C[C@@H](C)N(C(=O)c1ccc(Cl)c(Cl)c1)C3` (single isomer, unassigned) [Compound 2B, (3R,7S)-9-((S*)-1-(4-(1H-1,2,4-triazol-1-yl)phenyl)ethyl)-2-(3,4-dichlorobenzoyl)-N,3-dimethyl-10-oxo-1,2,3,4,7,8,9,10-octahydropyrido[4′,3′:3,4]pyrazolo[1,5-a]pyrazine-7-carboxamide], the “HLM Metabolism t1/2” value in series [1] was over 3 h. In addition, in the series on HepG2 or HepG2.117 cells, the CC50 was over 50 µM. Moreover, in the series with HBV, the EC50 was 0.017 µM.
Taken in the same sequence, the figures for `CNC(=O)[C@@H]1CN(C(C)c2ccc(C(C)(C)O)cn2)C(=O)c2c3c(nn21)C[C@@H](C)N(C(=O)c1ccc(Cl)c(Cl)c1)C3` (single isomer, unassigned) [Compound 39B, (3R,7S)-2-(3,4-dichlorobenzoyl)-9-((S*)-1-(5-(2-hydroxypropan-2-yl)pyridin-2-yl)ethyl)-N,3-dimethyl-10-oxo-1,2,3,4,7,8,9,10-octahydropyrido[4′,3′:3,4]pyrazolo[1,5-a]pyrazine-7-carboxamide] were over 3 h, over 50 µM and 0.12 µM.
Consider `CNC(=O)[C@@H]1CN(C(C)c2ccc(S(C)(=O)=O)cc2)C(=O)c2c3c(nn21)C[C@@H](C)N(C(=O)c1ccc(Cl)c(C(F)(F)F)c1)C3` (single isomer, unassigned) [Compound 19B, (3R,7S)-2-(4-chloro-3-(trifluoromethyl)benzoyl)-N,3-dimethyl-9-((S*)-1-(4-(methylsulfonyl)phenyl)ethyl)-10-oxo-1,2,3,4,7,8,9,10-octahydropyrido[4′,3′:3,4]pyrazolo[1,5-a]pyrazine-7-carboxamide], for which the “HLM Metabolism t1/2” value in series [1] is over 3 h. In the series with HepG2 or HepG2.117 cells, this compound came in with a CC50 of over 50 µM. The same compound displayed an EC50 in the series with HBV of 0.028 µM.
With `CNC(=O)[C@@H]1CN(C(C)c2nc(C(F)(F)F)cs2)C(=O)c2c3c(nn21)C[C@@H](C)N(C(=O)c1ccc(Cl)c(Cl)c1)C3` (single isomer, unassigned) [Compound 44B, (3R,7S)-2-(3,4-dichlorobenzoyl)-N,3-dimethyl-10-oxo-9-((S*)-1-(4-(trifluoromethyl)thiazol-2-yl)ethyl)-1,2,3,4,7,8,9,10-octahydropyrido[4′,3′:3,4]pyrazolo[1,5-a]pyrazine-7-carboxamide], in series [1], the “HLM Metabolism t1/2” value is over 3 h. This compound also gave a CC50 with HepG2 or HepG2.117 cells of over 50 µM. Further, in the series on HBV, the midpoint of the response, the EC50, lay at 0.091 µM.
As to `CNC(=O)[C@@H]1CN(C(C)c2ccc(C3CC3)nc2)C(=O)c2c3c(nn21)C[C@@H](C)N(C(=O)c1ccc(Cl)c(Cl)c1)C3` (single isomer, unassigned) [Compound 32B, (3R,7S)-9-((S*)-1-(6-cyclopropylpyridin-3-yl)ethyl)-2-(3,4-dichlorobenzoyl)-N,3-dimethyl-10-oxo-1,2,3,4,7,8,9,10-octahydropyrido[4′,3′:3,4]pyrazolo[1,5-a]pyrazine-7-carboxamide], in series [1], the “HLM Metabolism t1/2” value was over 3 h. In the series on HepG2 or HepG2.117 cells, this compound returned a CC50 of 48.7 µM. Besides, it took 0.011 µM to reach a half-maximal effect in the series on HBV (EC50).
Regarding `CNC(=O)[C@@H]1CN(C(C)c2ccc(OC(F)F)nc2)C(=O)c2c3c(nn21)C[C@@H](C)N(C(=O)c1ccc(Cl)c(Cl)c1)C3` (single isomer, unassigned) [Compound 11A, (3R,7S)-2-(3,4-Dichlorobenzoyl)-9-((R*)-1-(6-(difluoromethoxy)pyridin-3-yl)ethyl)-N,3-dimethyl-10-oxo-1,2,3,4,7,8,9,10-octahydropyrido[4′,3′:3,4]pyrazolo[1,5-a]pyrazine-7-carboxamide], the half-life at 1 μM in series [1] is over 3 h. In the series on HepG2 or HepG2.117 cells, the CC50 was over 50 µM. This compound also came in with an EC50 in the series on HBV of 0.12 µM.
As to `CNC(=O)[C@@H]1CN(C(C)c2ccccn2)C(=O)c2c3c(nn21)C[C@@H](C)N(C(=O)c1ccc(Cl)c(Cl)c1)C3` (single isomer, unassigned) [Compound 37B, (3R,7S)-2-(3,4-dichlorobenzoyl)-N,3-dimethyl-10-oxo-9-((S*)-1-(pyridin-2-yl)ethyl)-1,2,3,4,7,8,9,10-octahydropyrido[4′,3′:3,4]pyrazolo[1,5-a]pyrazine-7-carboxamide], the “HLM Metabolism t1/2” value in series [1] is over 3 h. Besides, the CC50 with HepG2 or HepG2.117 cells is over 50 µM. Further, the EC50 with HBV stood at 0.067 µM.
